These results are taken from ChEMBL document CHEMBL3593198 (Bioorg Med Chem, 2015).

Assay [1] relates to HeLa. Nature of the assay: Cytotoxicity against human HeLa cells after 48 hrs by MTT assay. Type of assay: functional, cell-based. (Formazan colour is commonly taken as a measure of viable cells.)
A short description of assay [2]: Cytotoxicity against human RKO-AS45-1 cells after 48 hrs by MTT assay. Particulars: RKOAS451, 48 h. The assay is classed as functional, cell-based.
The nature of assay [3]: Cytotoxicity against human WI-26 VA4 cells after 48 hrs by MTT assay. The assay is classed as cell-based. The following applies: WI26VA4, 48 h.
Assay [4] has as its system HeLa. In words: Selectivity index, ratio of IC50 for human WI-26 VA4 cells to IC50 for human HeLa cells. The assay is classed as functional.
Assay [5] can be described thus: Selectivity index, ratio of IC50 for human WI-26 VA4 cells to IC50 for human RKO-AS45-1 cells. The assay is classed as functional.
The target in assay [6] is Sodium/potassium-transporting ATPase subunit alpha-2/alpha-3 (Rattus norvegicus, UniProt P06686+P06687). In words: Inhibition of Wistar rat brain Na(+)/K(+) ATPase alpha-2/3 assessed as amount of Pi release after 1 hr by colorimetric method.
Assay [7] addresses T1, Sodium/potassium-transporting ATPase (Homo sapiens) (UniProt P05023+P14415+P05026+P50993+P54709+P13637+Q13733+P54710). Nature of the assay: Inhibition of Na(+)/K(+) ATPase in human HeLa cells at 10 uM after 24 hrs by immunoblotting. The assay is classed as cell-based. A general note: A western blot detects proteins with antibodies after separation by electrophoresis.
Assay [8] deals with T2, Sodium/potassium-transporting ATPase subunit alpha-1 (Homo sapiens, UniProt P05023). In words: Inhibition of human kidney Na(+)/K(+) ATPase alpha-1 assessed as amount of Pi release at 10 uM after 1 hr by colorimetric method.
The target of assay [9] is Sodium/potassium-transporting ATPase subunit alpha-2/alpha-3 (Rattus norvegicus) (UniProt P06686+P06687). In words: Inhibition of Wistar rat brain Na(+)/K(+) ATPase alpha-2/3 assessed as amount of Pi release at 10 uM after 1 hr by colorimetric method.
The target in assay [10] is T2, Sodium/potassium-transporting ATPase subunit alpha-1. In words: Inhibition of human kidney Na(+)/K(+) ATPase alpha-1 assessed as amount of Pi release after 1 hr by colorimetric method.
Assay [11] has as its system HeLa. In words: Inhibition of Na(+)/K(+) ATPase alpha-1 expression in human HeLa cells at 150 nM after 24 hrs by immunoblotting. Type of assay: functional, cell-based.
For assay [12], the target named is T1, Sodium/potassium-transporting ATPase (Homo sapiens). Particulars: HeLa, 150 nM.
Description: Inhibition of Na(+)/K(+) ATPase in human HeLa cells at 150 nM after 24 hrs by immunoblotting
Assay [13] deals with HeLa. In words: Inhibition of Na(+)/K(+) ATPase alpha-1 expression in human HeLa cells at 10 uM after 24 hrs by immunoblotting. The assay is classed as functional, cell-based.

Activity calls are given as the source filed them. No cut-off for these calls is given here.

Consider `C[C@H]1O[C@@H](O[C@H]2[C@@H](O)C[C@H](O[C@H]3[C@@H](O)C[C@H](O[C@H]4CC[C@@]5(C)[C@H](CC[C@@H]6[C@@H]5C[C@@H](O)[C@]5(C)[C@@H](C7=CC(=O)O/C7=C\c7cccc(Cl)c7Cl)CC[C@]65O)C4)O[C@@H]3C)O[C@@H]2C)C[C@H](O)[C@@H]1O`, for which the half-inhibitory concentration (IC50) in the assay on HeLa [1] stood at 42.5 µM; in [2], 19 µM; in assay [3], 15.5 µM; in [6] it was 18 µM. Also, the “Ratio IC50” value is 0.36 with HeLa [4] and 0.81 in assay [5]. Besides, the inhibition entry in assay [7] is “inactive”.
As for `C[C@H]1O[C@@H](O[C@H]2[C@@H](O)C[C@H](O[C@H]3[C@@H](O)C[C@H](O[C@H]4CC[C@@]5(C)[C@H](CC[C@@H]6[C@@H]5C[C@@H](O)[C@]5(C)[C@@H](C7=CC(=O)O/C7=C\c7ccc(Cl)cc7)CC[C@]65O)C4)O[C@@H]3C)O[C@@H]2C)C[C@H](O)[C@@H]1O`, the IC50 was 40.1 µM in the assay on HeLa [1], 23.8 µM in assay [2] and 28.7 µM in assay [3]. Moreover, the results for the “Ratio IC50” value (in the assay with HeLa [4]; in assay [5]) were 0.72 and 1.21, respectively. Moreover, the inhibition entry in assay [8], in [9] and in [7] was “inactive” throughout.
Turning to `COc1ccc(/C=C2\OC(=O)C=C2[C@H]2CC[C@]3(O)[C@@H]4CC[C@@H]5C[C@@H](O[C@H]6C[C@H](O)[C@H](O[C@H]7C[C@H](O)[C@H](O[C@H]8C[C@H](O)[C@H](O)[C@@H](C)O8)[C@@H](C)O7)[C@@H](C)O6)CC[C@]5(C)[C@H]4C[C@@H](O)[C@]23C)cc1`, the IC50 came to 61.4 µM with HeLa [1]; 79 µM in assay [2]; 78.3 µM in assay [3]; 0.57 µM in assay [10]; 0.46 µM in assay [6]. Also, the “Ratio IC50” value in the assay with HeLa [4] is recorded as 1.27; in assay [5], 0.99. Also, the inhibition result in assay [7] was “inactive”.
`C[C@H]1O[C@@H](O[C@H]2[C@@H](O)C[C@H](O[C@H]3[C@@H](O)C[C@H](O[C@H]4CC[C@@]5(C)[C@H](CC[C@@H]6[C@@H]5C[C@@H](O)[C@]5(C)[C@@H](C7=CC(=O)OC7)CC[C@]65O)C4)O[C@@H]3C)O[C@@H]2C)C[C@H](O)[C@@H]1O` [DIGOXIN] showed an IC50 in assay [2] of 0.42 µM. Besides, in the assay on HeLa [11], the inhibition entry was “inactive”. In assay [12], the inhibition entry is “Active”.
On to `C[C@H]1O[C@@H](O[C@H]2[C@@H](O)C[C@H](O[C@H]3[C@@H](O)C[C@H](O[C@H]4CC[C@@]5(C)[C@H](CC[C@@H]6[C@@H]5C[C@@H](O)[C@]5(C)[C@@H](C7=CC(=O)O/C7=C\c7cccc([N+](=O)[O-])c7)CC[C@]65O)C4)O[C@@H]3C)O[C@@H]2C)C[C@H](O)[C@@H]1O`, for which the IC50 in the assay with HeLa [1] is 65.2 µM; in [2], 41.3 µM; in assay [3], 44.1 µM; in [10] it was 11 µM; in [6], 4 µM. Besides, the “Ratio IC50” value was determined as 0.68 in the assay on HeLa [4] and 1.07 in assay [5]. Moreover, the inhibition result in assay [7] was “inactive”.
As to `C[C@H]1O[C@@H](O[C@H]2[C@@H](O)C[C@H](O[C@H]3[C@@H](O)C[C@H](O[C@H]4CC[C@@]5(C)[C@H](CC[C@@H]6[C@@H]5C[C@@H](O)[C@]5(C)[C@@H](C7=CC(=O)O/C7=C\c7ccc(N(C)C)cc7)CC[C@]65O)C4)O[C@@H]3C)O[C@@H]2C)C[C@H](O)[C@@H]1O`, the half-maximal inhibitory concentration (IC50) with HeLa [1] amounted to 0.26 µM; in assay [2], 0.48 µM; in assay [3] it was 0.65 µM; in assay [10], 9.8 µM; in assay [6] it was 20 µM. Moreover, the “Ratio IC50” value was 2.5 with HeLa [4] and 1.35 in assay [5]. The inhibition entry in assay [7] and in assay [12] was “Active” throughout. Also, the inhibition entry in the assay on HeLa [11] and in the assay with HeLa [13] was “inactive” each time.
Regarding `C[C@H]1O[C@@H](O[C@H]2[C@@H](O)C[C@H](O[C@H]3[C@@H](O)C[C@H](O[C@H]4CC[C@@]5(C)[C@H](CC[C@@H]6[C@@H]5C[C@@H](O)[C@]5(C)[C@@H](C7=CC(=O)O/C7=C\c7ccc(F)cc7)CC[C@]65O)C4)O[C@@H]3C)O[C@@H]2C)C[C@H](O)[C@@H]1O`, the IC50 in the assay with HeLa [1] came to 60.9 µM; in assay [2] it was 41.4 µM; in assay [3], 54.1 µM; in assay [10] it was 0.34 µM; in [6] it was 0.66 µM. The “Ratio IC50” value is 0.89 in the assay on HeLa [4] and 1.31 in assay [5]. In assay [7], the inhibition entry is “inactive”.

By IC50 is commonly meant the concentration that gives 50% inhibition.
